In patent US20100160454A1, “ANTIMICROBIAL AGENTS, COMPOSITIONS AND PRODUCTS CONTAINING THE SAME, AND METHODS OF USING THE COMPOSITIONS AND PRODUCTS” (Eastman Chemical Company, priority 2008, published 2010):

What was measured:
Experiment in all cases: Microbiological challenge testing in BPW broth, graded subculture counts
Type in all cases: cell-based
[1] = system: Aeromonas sp. Wild type
In short: (§1)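 Challenge substrates of BPW plus 1% dextrose containing the test material (w/v) or broth alone were inoculated to 10^5–10^6 CFU/mL. Bacteria had been precultured in dextrose TSB at 35 °C for at least 96 h. CFU/mL came from plate count × dilution factor on PCA after ≥48 h at 35 °C.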

[2] = system: Bacillus subtilis Wild type
In short: as §1

[3] = system: Escherichia coli ATCC 25922; details: E. Coli
In short: as §1

[4] = system: Pseudomonas aeruginosa Wild type; details: P. aeruginosa
In short: as §1

[5] = system: Staphylococcus epidermidis ATCC 12228
In short: as §1

[6] = system: Streptococcus mutans ATCC 35668
In short: as §1

`OCC1CCC(CO)CC1` (stereo not drawn) [1,4-CHDM, 1,4-cyclohexanedimethanol] was tested. Which “Aeromonas sp growth grade, 3 day” value ([1]; 0.5% weight/volume) did it give?
The value was 5 (More than 10,000 colonies estimated (thus more than 100,000 CFU/mL)).

What about the “Aeromonas sp growth grade, 14 day” value ([1]; 0.5% weight/volume) of the same molecule?
The value was 4 (1000 to 10,000 colonies countable (thus 10,000 CFU/mL to 100,000 CFU/mL)).

And the “Aeromonas sp growth grade, 30 day” value ([1]; 0.5% weight/volume)?
The value was 4 (1000 to 10,000 colonies countable (thus 10,000 CFU/mL to 100,000 CFU/mL)).

And the “Aeromonas sp growth grade, 3 day” value ([1]; 1.25% weight/volume)?
Its value is 4 (1000 to 10,000 colonies countable (thus 10,000 CFU/mL to 100,000 CFU/mL)).

What about the “Aeromonas sp growth grade, 14 day” value ([1]; 1.25% weight/volume) of the same molecule?
The value was 3 (100 to 1000 colonies (thus 1000 to 10,000 CFU/mL)).

And the “Aeromonas sp growth grade, 30 day” value ([1]; 1.25% weight/volume)?
Its value is 2 (52 to 100 colonies counted (thus 520 to 1000 CFU/mL)).

What about the “Aeromonas sp growth grade, 3 day” value ([1]; 2.5% weight/volume) of the same molecule?
Its value is 3 (100 to 1000 colonies (thus 1000 to 10,000 CFU/mL)).

What about the “Aeromonas sp growth grade, 14 day” value ([1]; 2.5% weight/volume) of the same molecule?
The value was 1 (0 to 51 colonies counted (thus 10 to 510 CFU/mL based on 0.1-mL sample)).

What about the “Aeromonas sp growth grade, 30 day” value ([1]; 2.5% weight/volume) of the same molecule?
The value was 0.

What about the “Aeromonas sp growth grade, 3 day” value ([1]; 5.0% weight/volume) of the same molecule?
Its value is 0.

And the “Aeromonas sp growth grade, 14 day” value ([1]; 5.0% weight/volume)?
Its value is 0.

What about the “Aeromonas sp growth grade, 30 day” value ([1]; 5.0% weight/volume) of the same molecule?
The value was 0.

And the “B. subtillis growth grade, 3 day” value ([2]; 0.5% weight/volume)?
Its value is 4 (1000 to 10,000 colonies countable (thus 10,000 CFU/mL to 100,000 CFU/mL)).

And the “B. subtillis growth grade, 14 day” value ([2]; 0.5% weight/volume)?
The value was 4 (1000 to 10,000 colonies countable (thus 10,000 CFU/mL to 100,000 CFU/mL)).

And the “B. subtillis growth grade, 30 day” value ([2]; 0.5% weight/volume)?
The value was 4 (1000 to 10,000 colonies countable (thus 10,000 CFU/mL to 100,000 CFU/mL)).

What about the “B. subtillis growth grade, 3 day” value ([2]; 1.25% weight/volume) of the same molecule?
Its value is 4 (1000 to 10,000 colonies countable (thus 10,000 CFU/mL to 100,000 CFU/mL)).

And the “B. subtillis growth grade, 14 day” value ([2]; 1.25% weight/volume)?
The value was 4 (1000 to 10,000 colonies countable (thus 10,000 CFU/mL to 100,000 CFU/mL)).

What about the “B. subtillis growth grade, 30 day” value ([2]; 1.25% weight/volume) of the same molecule?
The value was 4 (1000 to 10,000 colonies countable (thus 10,000 CFU/mL to 100,000 CFU/mL)).

What about the “B. subtillis growth grade, 3 day” value ([2]; 2.5% weight/volume) of the same molecule?
Its value is 3 (100 to 1000 colonies (thus 1000 to 10,000 CFU/mL)).

What about the “B. subtillis growth grade, 14 day” value ([2]; 2.5% weight/volume) of the same molecule?
The value was 2 (52 to 100 colonies counted (thus 520 to 1000 CFU/mL)).

And the “B. subtillis growth grade, 30 day” value ([2]; 2.5% weight/volume)?
The value was 1 (0 to 51 colonies counted (thus 10 to 510 CFU/mL based on 0.1-mL sample)).

And the “B. subtillis growth grade, 3 day” value ([2]; 5.0% weight/volume)?
The value was 1 (0 to 51 colonies counted (thus 10 to 510 CFU/mL based on 0.1-mL sample)).

What about the “B. subtillis growth grade, 14 day” value ([2]; 5.0% weight/volume) of the same molecule?
Its value is 0.

What about the “B. subtillis growth grade, 30 day” value ([2]; 5.0% weight/volume) of the same molecule?
The value was 0.

And the Grade ([3]; 0.5% (wt/vol), 3 day)?
The Grade was 5 (More than 10,000 colonies estimated (thus more than 100,000 CFU/mL)).

And the Grade ([3]; 0.5% (wt/vol), 14 day)?
Its Grade is 4 (1000 to 10,000 colonies countable (thus 10,000 CFU/mL to 100,000 CFU/mL)).

What about the Grade ([3]; 0.5% (wt/vol), 30 day) of the same molecule?
Its Grade is 4 (1000 to 10,000 colonies countable (thus 10,000 CFU/mL to 100,000 CFU/mL)).

What about the Grade ([3]; 1.25% (wt/vol), 3 day) of the same molecule?
The Grade was 4 (1000 to 10,000 colonies countable (thus 10,000 CFU/mL to 100,000 CFU/mL)).

And the Grade ([3]; 1.25% (wt/vol), 14 day)?
Its Grade is 4 (1000 to 10,000 colonies countable (thus 10,000 CFU/mL to 100,000 CFU/mL)).

And the Grade ([3]; 1.25% (wt/vol), 30 day)?
Its Grade is 4 (1000 to 10,000 colonies countable (thus 10,000 CFU/mL to 100,000 CFU/mL)).

What about the Grade ([3]; 2.5% (wt/vol), 3 day) of the same molecule?
Its Grade is 3 (100 to 1000 colonies (thus 1000 to 10,000 CFU/mL)).

And the Grade ([3]; 2.5% (wt/vol), 14 day)?
Its Grade is 2 (52 to 100 colonies counted (thus 520 to 1000 CFU/mL)).

And the Grade ([3]; 2.5% (wt/vol), 30 day)?
The Grade was 0.

What about the Grade ([3]; 5.0% (wt/vol), 3 day) of the same molecule?
The Grade was 0.

And the Grade ([3]; 5.0% (wt/vol), 14 day)?
Its Grade is 0.

And the Grade ([3]; 5.0% (wt/vol), 30 day)?
The Grade was 0.

And the Grade ([4]; 0.5% (wt/vol), 3 day)?
The Grade was 4 (1000 to 10,000 colonies countable (thus 10,000 CFU/mL to 100,000 CFU/mL)).

What about the Grade ([4]; 0.5% (wt/vol), 13 day) of the same molecule?
The Grade was 4 (1000 to 10,000 colonies countable (thus 10,000 CFU/mL to 100,000 CFU/mL)).

What about the Grade ([4]; 0.5% (wt/vol), 30 day) of the same molecule?
Its Grade is 4 (1000 to 10,000 colonies countable (thus 10,000 CFU/mL to 100,000 CFU/mL)).

And the Grade ([4]; 1.25% (wt/vol), 3 day)?
The Grade was 4 (1000 to 10,000 colonies countable (thus 10,000 CFU/mL to 100,000 CFU/mL)).

What about the Grade ([4]; 1.25% (wt/vol), 13 day) of the same molecule?
The Grade was 3 (100 to 1000 colonies (thus 1000 to 10,000 CFU/mL)).

And the Grade ([4]; 1.25% (wt/vol), 30 day)?
The Grade was 4 (1000 to 10,000 colonies countable (thus 10,000 CFU/mL to 100,000 CFU/mL)).

And the Grade ([4]; 2.5% (wt/vol), 3 day)?
The Grade was 3 (100 to 1000 colonies (thus 1000 to 10,000 CFU/mL)).

And the Grade ([4]; 2.5% (wt/vol), 13 day)?
Its Grade is 2 (52 to 100 colonies counted (thus 520 to 1000 CFU/mL)).

What about the Grade ([4]; 2.5% (wt/vol), 30 day) of the same molecule?
The Grade was 0.

And the Grade ([4]; 5.0% (wt/vol), 3 day)?
The Grade was 0.

What about the Grade ([4]; 5.0% (wt/vol), 13 day) of the same molecule?
Its Grade is 0.

And the Grade ([4]; 5.0% (wt/vol), 30 day)?
Its Grade is 0.

What about the “S. epidermidis growth grade, 3 day” value ([5]; 0.5% weight/volume) of the same molecule?
The value was 4 (1000 to 10,000 colonies countable (thus 10,000 CFU/mL to 100,000 CFU/mL)).

What about the “S. epidermidis growth grade, 13 day” value ([5]; 0.5% weight/volume) of the same molecule?
Its value is 4 (1000 to 10,000 colonies countable (thus 10,000 CFU/mL to 100,000 CFU/mL)).

What about the “S. epidermidis growth grade, 30 day” value ([5]; 0.5% weight/volume) of the same molecule?
The value was 4 (1000 to 10,000 colonies countable (thus 10,000 CFU/mL to 100,000 CFU/mL)).

What about the “S. epidermidis growth grade, 3 day” value ([5]; 1.25% weight/volume) of the same molecule?
Its value is 2 (52 to 100 colonies counted (thus 520 to 1000 CFU/mL)).

What about the “S. epidermidis growth grade, 13 day” value ([5]; 1.25% weight/volume) of the same molecule?
Its value is 0.7.

And the “S. epidermidis growth grade, 30 day” value ([5]; 1.25% weight/volume)?
Its value is 2 (52 to 100 colonies counted (thus 520 to 1000 CFU/mL)).

What about the “S. epidermidis growth grade, 3 day” value ([5]; 2.5% weight/volume) of the same molecule?
Its value is 0.7.

And the “S. epidermidis growth grade, 13 day” value ([5]; 2.5% weight/volume)?
The value was 0.

And the “S. epidermidis growth grade, 30 day” value ([5]; 2.5% weight/volume)?
The value was 0.

And the “S. epidermidis growth grade, 3 day” value ([5]; 5.0% weight/volume)?
The value was 0.

What about the “S. epidermidis growth grade, 13 day” value ([5]; 5.0% weight/volume) of the same molecule?
Its value is 0.

What about the “S. epidermidis growth grade, 30 day” value ([5]; 5.0% weight/volume) of the same molecule?
The value was 0.

And the “S. mutans growth grade, 3 day” value ([6]; 0.5% weight/volume)?
The value was 4 (1000 to 10,000 colonies countable (thus 10,000 CFU/mL to 100,000 CFU/mL)).

And the “S. mutans growth grade, 13 day” value ([6]; 0.5% weight/volume)?
The value was 4 (1000 to 10,000 colonies countable (thus 10,000 CFU/mL to 100,000 CFU/mL)).

And the “S. mutans growth grade, 30 day” value ([6]; 0.5% weight/volume)?
The value was 4 (1000 to 10,000 colonies countable (thus 10,000 CFU/mL to 100,000 CFU/mL)).

What about the “S. mutans growth grade, 3 day” value ([6]; 1.25% weight/volume) of the same molecule?
The value was 4 (1000 to 10,000 colonies countable (thus 10,000 CFU/mL to 100,000 CFU/mL)).

What about the “S. mutans growth grade, 13 day” value ([6]; 1.25% weight/volume) of the same molecule?
The value was 2 (52 to 100 colonies counted (thus 520 to 1000 CFU/mL)).

What about the “S. mutans growth grade, 30 day” value ([6]; 1.25% weight/volume) of the same molecule?
The value was 2 (52 to 100 colonies counted (thus 520 to 1000 CFU/mL)).

What about the “S. mutans growth grade, 3 day” value ([6]; 2.5% weight/volume) of the same molecule?
Its value is 2 (52 to 100 colonies counted (thus 520 to 1000 CFU/mL)).

And the “S. mutans growth grade, 13 day” value ([6]; 2.5% weight/volume)?
Its value is 0.

And the “S. mutans growth grade, 30 day” value ([6]; 2.5% weight/volume)?
Its value is 0.

What about the “S. mutans growth grade, 3 day” value ([6]; 5.0% weight/volume) of the same molecule?
The value was 0.

And the “S. mutans growth grade, 13 day” value ([6]; 5.0% weight/volume)?
The value was 0.

And the “S. mutans growth grade, 30 day” value ([6]; 5.0% weight/volume)?
Its value is 0.
